Assays:
[1] = Hydrodynamic radius of micelles by dynamic light scattering (DLS); type: physicochemical; settings: micelles formed by each agent at 1.0 wt %
Protocol: A method of measuring the radius of the micelles is not particularly limited, and any method well known in the art, for example, a DLS test may be used.
(§1) Specifically, a CMC was measured using fluorescent staining and diphenylhexatriene (DPH), and the hydrodynamic radii (Rh) of micelles formed by each agent (1.0 wt %) were measured by a DLS test. The measured results were compared with those for the conventional amphipathic molecule (detergent), DDM, and thus are shown in Table 1.

[2] = Critical micelle concentration by fluorescent staining with diphenylhexatriene (DPH); type: physicochemical; settings: aqueous solution
Protocol: A method of measuring CMC is not particularly limited, and any method well known in the art, for example, a fluorescent staining method using diphenylhexatriene (DPH) may be used.
as §1

[3] = test system: LeuT (leucine transporter); assay: LeuT stability by [3H]-Leu substrate binding, scintillation proximity assay (SPA); type: biochemical, Aquifex aeolicus; settings: TMMs or DDM at CMC+0.04 wt %, incubation at room temperature, FIG. 13a
Protocol: An experiment of measuring LeuT protein stability for TMGs and TMMs was performed. (a) CMC+0.04 wt % or (b) CMC+0.2 wt % of each amphipathic molecule was used, and the evaluation of the LeuT protein stability was performed by taking an advantage of a characteristic of LeuT binding to a substrate through a scintillation proximity assay (SPA) using [^3H]-Leu. […]
Specifically, wild type LeuT (leucine transporter) derived from a thermophilic bacterium, Aquifex aeolicus, was purified by a previously-disclosed method (G. Deckert et al., Nature 1998, 392, 353-358). LeuT was expressed in E. coli C41 (DE3) transformed with pET16b encoding a C-terminus 8×His-tagged transporter (the expression plasmid was provided by Dr E. Gouaux, Vollum Institute, Portland, Oreg., USA). In summary, following isolation of a bacterial membrane and lysis with 1% (w/v) DDM, the protein was allowed to bind to a Ni^2+-NTA resin (Life Technologies, Denmark), and eluted in 20 mM Tris-HCl (pH 8.0), 1 mM NaCl, 199 mM KCl, 0.05% (w/v) DDM and 300 mM imidazole. Afterward, the purified LeuT (approximately 1.5 mg/ml) was diluted with the same buffer used above, from which DDM and imidazole were removed, and then supplemented with TMGs or DDM at the final concentration of CMC+0.04% (w/v). […] SPA was performed using a buffer containing 450 mM NaCl and each of the TMGs and TMMs at the predetermined concentration. The SPA reaction is performed in the presence of 20 nM [^3H]-Leucine and 1.25 mg/ml copper chelate (His-Tag) YSi beads (Perkin Elmer, Denmark). A total [^3H]-Leucine binding degree of each sample was measured using a MicroBeta liquid scintillation counter (Perkin Elmer).

[4] = molecular target: T1, melibiose permease (MelBSt) (Salmonella typhimurium, UniProt P30878); assay: MelBSt extraction and solubility at four temperatures, SDS-PAGE and western blotting; type: biochemical; settings: 1.5 wt %, 90 minutes
T1 construct: made in house; host or cells: E. coli DW2 cells (melB and lacZY), plasmid pK95AHB/WT MelBSt/CH10
Protocol: An experiment was performed to measure structural stability of Salmonella typhimurium melibiose permease (MelBSt) protein by TMGs. The MelBSt protein was extracted from a membrane using TMGs or DDM, and then an amount of the extracted protein and its structure were analyzed by SDS-PAGE and western blotting. A concentration of the amphipathic molecule used was 1.5 wt %, and two types of performance such as protein extraction efficiency and stabilization ability of the compound were simultaneously evaluated by extracting the protein at four temperatures (0, 45, 55, and 65° C.), incubating the protein for 90 minutes at the same temperatures, and measuring an amount of the protein remaining dissolved in an aqueous solution. The amount of the protein extracted and stabilized by each amphipathic molecule was expressed as a relative value (%) with respect to a total amount of the protein contained in a membrane sample not treated with an amphipathic molecule.
Specifically, Salmonella typhimurium MelBSt (melibiose permease) having a 10-His tag at the C-terminus was expressed in E. coli DW2 cells (melB and lacZY) using plasmid pK95AHB/WT MelBSt/CH10. According to the method disclosed in the article written by A. S. Ethayathulla et al. (Nat. Commun. 2014, 5, 2009), cell growth and membrane preparation were performed. A protein assay was performed using a Micro BCA kit (Thermo Scientific, Rockford, Ill.). Using the protocol disclosed in Nat. Methods 2010, 7, 1003-1008 written by P. S. Chae et al., DDM or TMGs were evaluated for MelBSt stability. A MelBSt-containing membrane sample (the final protein concentration was 10 mg/mL) was incubated at four temperatures (0, 45, 55 and 65° C.) for 90 minutes in a 1.5% (w/v) DDM or TMG-containing solubilization buffer (20 mM sodium phosphate, pH 7.5, 200 mM NaCl, 10% glycerol, 20 mM melibiose). To remove insoluble material, ultracentrifugation was performed using a Beckman Optima™ MAX ultracentrifuge equipped with a TLA-100 rotor at 355,590 g at 4° C. for 45 minutes, and then 20 μg of each protein sample was separated using SDS-15% PAGE, followed by immunoblotting using a Penta-His-HRP antibody (Qiagen, Germantown, Md.). MelBSt was measured by an ImageQuant LAS 4000 biomolecular imager (GE Health Care Life Sciences) using a SuperSignal West Pico chemiluminescent substrate.

[5] = test system: T2, light harvesting complex I and reaction center (LHI-RC) complex; assay: Stability of LHI-RC complex in amphipathic molecule, UV-visible spectrum over 20 days; type: biochemical, Rhodobacter capsulatus; settings: CMC+0.04 wt % or CMC+0.2 wt %, 20 days at room temperature, FIGS. 7 and 8
T2 construct: His tag (only implied by the Ni-NTA / His-SpinTrap purification); made in house
Protocol: The super-assembly of R. capsulatus expressed in manipulated R. capsulatus strains was solubilized and purified according to a protocol disclosed in previous literature (P. S. Chae, Analyst, 2015, 140, 3157-3163.). A 10 mL aliquot of a frozen membrane was thawed, and homogenized using a glass tissue homogenizer at room temperature. The homogenate was incubated for 30 minutes at 32° C. under gentle agitation. After addition of 1.0 wt % DDM, the homogenate was further incubated for 30 minutes at 32° C. Following ultracentrifugation, a supernatant containing a solubilized light harvesting complex I and reaction center (LHI-RC) complex was collected, and incubated with an Ni^2+-NTA resin for 1 hour at 4° C. The resin was added to each 10 His-SpinTrap column, and then the resulting product was washed with 500 μL of a coupling buffer (10 mM Tris (pH 7.8), […], 1×CMC DDM) twice. The LHI-RC complex purified by DDM was eluted from the column using a buffer containing 1.0 M imidazole (2×300 μL). […] Protein stability was measured at regular intervals while a protein-amphipathic molecule sample was incubated by measuring the UV-visible spectrum of a specimen in a range of 650 to 950 nm.

## CCCCCCCCCCCCO[C@@H]1O[C@H](CO)[C@@H](O[C@H]2O[C@H](CO)[C@@H](O)[C@H](O)[C@H]2O)[C@H](O)[C@H]1O [DDM, n-dodecyl-β-D-maltopyranoside, reference compound]
[1]
  Rh (nm), hydrodynamic radius of micelles: 3.4 ± 0.03 nm
[2]
  CMC: ~0.17 mM
  CMC (wt %): ~0.0087 wt %
[3]
  activity of LeuT over time: gradually reduced over time
[4]; 0° C.
  amount of MelBSt solubilized / extraction efficiency: slightly more excellent protein extraction efficiency than TMGs
[4]; 55° C.
  MelBSt remaining solubilized: 10%
[4]; 65° C.
  MelBSt protein dissolved in aqueous solution: not detected
[5]
  stability of the LHI-RC complex: significantly reduced complex stabilization as the concentration increased from CMC+0.04 wt % to CMC+0.2 wt %
